Format in all cases: in vivo
One assay deals with wheat. Put plainly: Post-emergence herbicidal activity against cereal crops (wheat) +/- safener, crop selectivity. The settings on record: 100%=total damage to plant, 0%=no damage; for Post-emergence herbicidal activity against wheat (percentage phytotoxicity), +CQC: 250 g/ha, plus safener cloquintocet-mexyl (CQC) applied at 50 g/ha; for percent phytotoxicity (crop damage) to wheat at 250 g/ha: Triticum aestivum, 360 h, without safener, read-out: Post-emergence herbicidal activity against wheat (percentage phytotoxicity), Wheat - CQC. The gist of the method: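 Test plants raised in pots in a glasshouse (24/18 °C warm or 20/16 °C cool species day/night, 16 h light, 65% humidity) and treated post-emergence about 12 days after sowing. Visual percentage phytotoxicity scored 15 days after application (0% = no damage, 100% = total damage).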

The subject of assay [1] is Echinochloa crus-galli (ECHCG). Put plainly: Glasshouse assay for herbicidal activity, pre-/post-emergence (percentage phytotoxicity). The settings on record: Echinochloa crus-galli, Rate 250 g/ha, 100%=total damage, 0%=no damage. The gist of the method:
(§1)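 Pre- and post-emergence treatments were applied to potted plants at 1 and ~12 days after sowing respectively. Percentage phytotoxicity was judged visually 20 or 15 days later.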

Assay [2] has as its system Alopecurus myosuroides (ALOMY). Described as above. The settings on record: Alopecurus myosuroides, Rate 250 g/ha, 100%=total damage, 0%=no damage. The gist of the method: as §1
For a further assay, the system named is Lolium perenne (LOLPE). The assay is described as above. Particulars: Lolium perenne, Rate 250 g/ha, 100%=total damage, 0%=no damage. The gist of the method: as §1
A further assay has as its system Avena fatua (AVEFA). The description is as above. Particulars: Avena fatua, Rate 250 g/ha, 100%=total damage, 0%=no damage. A digest of the protocol:
as §1

The mark [3] stands for this setting: post-emergence, 360 h, post-emergence, visual assessment 15 DAA, read-out: Post-emergence herbicidal activity (percentage phytotoxicity), ECHCG POST.
Setting [4] is: pre-emergence, 480 h, pre-emergence, visual assessment 20 DAA, read-out: Pre-emergence herbicidal activity (percentage phytotoxicity), ECHCG PRE.
[5] abbreviates: 360 h, post-emergence, visual assessment 15 DAA, read-out: Post-emergence herbicidal activity (percentage phytotoxicity), ALOMY POST.
The mark [6] stands for this setting: 480 h, pre-emergence, visual assessment 20 DAA, read-out: Pre-emergence herbicidal activity (percentage phytotoxicity), ALOMY PRE.
Where [7] appears, read: post-emergence, 360 h, post-emergence, visual assessment 15 DAA, read-out: Post-emergence herbicidal activity (percentage phytotoxicity), LOLPE POST.
[8] abbreviates: pre-emergence, 480 h, pre-emergence, visual assessment 20 DAA, read-out: Pre-emergence herbicidal activity (percentage phytotoxicity), LOLPE PRE.
Setting [9] is: post-emergence, 360 h, post-emergence, visual assessment 15 DAA, read-out: Post-emergence herbicidal activity (percentage phytotoxicity), AVEFA POST.
Where [10] appears, read: pre-emergence, 480 h, pre-emergence, visual assessment 20 DAA, read-out: Pre-emergence herbicidal activity (percentage phytotoxicity), AVEFA PRE.

Each structure is given as a SMILES string. Read-outs that look alike come from different tables or passages of the source.

The values below come from patent publication US10301295B2, “Herbicidal compounds” (Syngenta Participations AG, priority 2014, dated 2019).

Take `Cc1cc(C)c(C2C(=O)CC(CCNC(=O)NC(C)(C)C)C2=O)c(C)c1` (stereo not drawn) [Compound A5]: the “Post-emergence herbicidal activity against wheat (percentage phytotoxicity), +CQC” value with wheat was 20%. In the assay on wheat, the percent phytotoxicity (crop damage) to wheat at 250 g/ha stood at 50%. Besides, the pest or weed control at 250 g/ha was determined as 100% in assay [1] (setting [3]); 90% in assay [1] (setting [4]); 80% in assay [2] (setting [5]); 100% in assay [2] (setting [6]); 90% with Lolium perenne (LOLPE) (setting [7]); 90% in the assay with Lolium perenne (LOLPE) (setting [8]). Also, the pest or weed control at 250 g/ha in the assay on Avena fatua (AVEFA) (setting [9]) was determined as 90%; in the assay with Avena fatua (AVEFA) (setting [10]), 80%.
For the molecule `Cc1cc(C)c(C2C(=O)CC(CCNC(=O)NC(=O)c3c(F)cc(Cl)cc3F)C2=O)c(C)c1` (stereo not drawn) [Compound A64], the “Post-emergence herbicidal activity against wheat (percentage phytotoxicity), +CQC” value with wheat was 80%. For the same molecule, the percent phytotoxicity (crop damage) to wheat at 250 g/ha in the assay with wheat is 90%. The pest or weed control at 250 g/ha amounted to 90% in assay [1] (setting [3]); 80% in assay [1] (setting [4]); 90% in assay [2] (setting [5]); 100% in assay [2] (setting [6]); 100% in the assay on Lolium perenne (LOLPE) (setting [7]); 80% in the assay on Lolium perenne (LOLPE) (setting [8]). For the same molecule, the pest or weed control at 250 g/ha in the assay on Avena fatua (AVEFA) (setting [9]) is 90%; with Avena fatua (AVEFA) (setting [10]), 80%.
Turning to `Cc1cc(C)c(C2C(=O)CC(CCNC(=O)NC(=O)c3ccccc3C)C2=O)c(C)c1` (stereo not drawn) [Compound A50], the “Post-emergence herbicidal activity against wheat (percentage phytotoxicity), +CQC” value in the assay with wheat was 90%. In addition, the percent phytotoxicity (crop damage) to wheat at 250 g/ha with wheat worked out at 90%. Besides, the pest or weed control at 250 g/ha in assay [1] (setting [3]) came to 80%; in assay [1] (setting [4]) it was 90%; in assay [2] (setting [5]) it was 100%; in assay [2] (setting [6]) it was 100%; in the assay on Lolium perenne (LOLPE) (setting [7]), 100%; with Lolium perenne (LOLPE) (setting [8]), 90%. Besides, the pest or weed control at 250 g/ha came out at 90% with Avena fatua (AVEFA) (setting [9]) and 80% in the assay with Avena fatua (AVEFA) (setting [10]).
Consider `Cc1cc(C)c(C2C(=O)CC(CCNS(=O)(=O)c3ccccc3C(F)(F)F)C2=O)c(C)c1` (stereo not drawn) [Compound A86], for which the “Post-emergence herbicidal activity against wheat (percentage phytotoxicity), +CQC” value with wheat stood at 0%. In the assay with wheat, the percent phytotoxicity (crop damage) to wheat at 250 g/ha worked out at 20%. For the same molecule, the pest or weed control at 250 g/ha was determined as 30% in assay [1] (setting [3]); 60% in assay [1] (setting [4]); 50% in assay [2] (setting [5]); 20% in assay [2] (setting [6]); 30% in the assay on Lolium perenne (LOLPE) (setting [7]); 60% in the assay on Lolium perenne (LOLPE) (setting [8]). In addition, the results for the pest or weed control at 250 g/ha in the assay on Avena fatua (AVEFA) (setting [9]) and in the assay on Avena fatua (AVEFA) (setting [10]) were 0% and 20%, respectively.
Take `Cc1cc(C)c(C2C(=O)CC(CCNC(N)=O)C2=O)c(C)c1` (stereo not drawn) [Compound A6]: the “Post-emergence herbicidal activity against wheat (percentage phytotoxicity), +CQC” value in the assay on wheat stood at 10%. For the same molecule, the percent phytotoxicity (crop damage) to wheat at 250 g/ha with wheat turned out to be 10%. Further, the pest or weed control at 250 g/ha was 100% in assay [1] (setting [3]); 90% in assay [1] (setting [4]); 70% in assay [2] (setting [5]); 30% in assay [2] (setting [6]); 90% with Lolium perenne (LOLPE) (setting [7]); 80% in the assay on Lolium perenne (LOLPE) (setting [8]). Further, the results for the pest or weed control at 250 g/ha in the assay with Avena fatua (AVEFA) (setting [9]) and in the assay on Avena fatua (AVEFA) (setting [10]) were 90% and 0%, respectively.
As to `Cc1cc(C)c(C2C(=O)CC(CCNC(=O)Nc3cc(C(C)(C)C)on3)C2=O)c(C)c1` (stereo not drawn) [Compound A15], the “Post-emergence herbicidal activity against wheat (percentage phytotoxicity), +CQC” value in the assay with wheat came out at 30%. Further, the percent phytotoxicity (crop damage) to wheat at 250 g/ha in the assay with wheat amounted to 40%. The pest or weed control at 250 g/ha was found to be 30% in assay [1] (setting [3]); 70% in assay [1] (setting [4]); 60% in assay [2] (setting [5]); 70% in assay [2] (setting [6]); 70% in the assay with Lolium perenne (LOLPE) (setting [7]); 70% with Lolium perenne (LOLPE) (setting [8]). Moreover, the pest or weed control at 250 g/ha with Avena fatua (AVEFA) (setting [9]) and in the assay on Avena fatua (AVEFA) (setting [10]) was 50% each time.
In the case of `Cc1cc(-n2cc(Cl)cn2)cc(C)c1C1C(=O)CC(CCNC(=O)NC(C)(C)C)C1=O` (stereo not drawn) [Compound A21], the “Post-emergence herbicidal activity against wheat (percentage phytotoxicity), +CQC” value with wheat is 70%. In the assay with wheat, the percent phytotoxicity (crop damage) to wheat at 250 g/ha is 90%. In addition, the pest or weed control at 250 g/ha is 100% in assay [1] (setting [3]); 100% in assay [1] (setting [4]); 90% in assay [2] (setting [5]); 90% in assay [2] (setting [6]); 90% in the assay on Lolium perenne (LOLPE) (setting [7]); 80% in the assay with Lolium perenne (LOLPE) (setting [8]). The values for the pest or weed control at 250 g/ha in the assay on Avena fatua (AVEFA) (setting [9]) and in the assay with Avena fatua (AVEFA) (setting [10]) were 100% and 90%, respectively.
For the molecule `Cc1cc(C)c(C2C(=O)CC(CCNC(=O)NC(=O)c3cccc(C(F)(F)F)c3)C2=O)c(C)c1` (stereo not drawn) [Compound A66], in the assay on wheat, the “Post-emergence herbicidal activity against wheat (percentage phytotoxicity), +CQC” value turned out to be 40%. In addition, the percent phytotoxicity (crop damage) to wheat at 250 g/ha in the assay with wheat came out at 80%. The pest or weed control at 250 g/ha in assay [1] (setting [3]) amounted to 60%; in assay [1] (setting [4]) it was 10%; in assay [2] (setting [5]), 70%; in assay [2] (setting [6]), 20%; in the assay with Lolium perenne (LOLPE) (setting [7]), 80%; with Lolium perenne (LOLPE) (setting [8]), 40%. Further, the values for the pest or weed control at 250 g/ha in the assay on Avena fatua (AVEFA) (setting [9]) and in the assay with Avena fatua (AVEFA) (setting [10]) were 30% and 0%, respectively.
`Cc1cc(C)c(C2C(=O)CC(CCNC(=O)N(C)c3ccccn3)C2=O)c(C)c1` (stereo not drawn) [Compound A11]: the “Post-emergence herbicidal activity against wheat (percentage phytotoxicity), +CQC” value in the assay on wheat was found to be 70%. Besides, the percent phytotoxicity (crop damage) to wheat at 250 g/ha in the assay with wheat was found to be 80%. The pest or weed control at 250 g/ha in assay [1] (setting [3]) came out at 90%; in assay [1] (setting [4]), 100%; in assay [2] (setting [5]) it was 90%; in assay [2] (setting [6]), 100%; in the assay on Lolium perenne (LOLPE) (setting [7]), 100%; in the assay with Lolium perenne (LOLPE) (setting [8]), 100%. Moreover, the pest or weed control at 250 g/ha in the assay with Avena fatua (AVEFA) (setting [9]) and with Avena fatua (AVEFA) (setting [10]) was 90% each time.
For the molecule `Cc1cc(C)c(C2C(=O)CC(CCNC(=O)Nc3ccccc3F)C2=O)c(C)c1` (stereo not drawn) [Compound A45], the “Post-emergence herbicidal activity against wheat (percentage phytotoxicity), +CQC” value with wheat stood at 0%. Also, the percent phytotoxicity (crop damage) to wheat at 250 g/ha with wheat was 0%. Also, the pest or weed control at 250 g/ha in assay [1] (setting [3]) was found to be 40%; in assay [1] (setting [4]), 80%; in assay [2] (setting [5]), 20%; in assay [2] (setting [6]), 0%; in the assay on Lolium perenne (LOLPE) (setting [7]), 80%; in the assay with Lolium perenne (LOLPE) (setting [8]), 90%. In addition, the pest or weed control at 250 g/ha in the assay with Avena fatua (AVEFA) (setting [9]) and in the assay on Avena fatua (AVEFA) (setting [10]) was 0% in each case.
As to `Cc1cc(C)c(C2C(=O)CC(CCNc3ccc(C(F)(F)F)cn3)C2=O)c(C)c1` (stereo not drawn) [Compound A34], the “Post-emergence herbicidal activity against wheat (percentage phytotoxicity), +CQC” value with wheat is reported as 70%. Moreover, the percent phytotoxicity (crop damage) to wheat at 250 g/ha with wheat was 80%. Besides, the pest or weed control at 250 g/ha in assay [1] (setting [3]) was found to be 100%; in assay [1] (setting [4]), 100%; in assay [2] (setting [5]), 90%; in assay [2] (setting [6]), 90%; with Lolium perenne (LOLPE) (setting [7]), 90%; in the assay on Lolium perenne (LOLPE) (setting [8]), 100%. Besides, the figures for the pest or weed control at 250 g/ha with Avena fatua (AVEFA) (setting [9]) and with Avena fatua (AVEFA) (setting [10]) were 90% and 80%, respectively.
On to `Cc1cc(C)c(C2C(=O)CC(CCNC(=O)N(C)C)C2=O)c(C)c1` (stereo not drawn) [Compound A31], for which, in the assay on wheat, the “Post-emergence herbicidal activity against wheat (percentage phytotoxicity), +CQC” value is recorded as 10%. Further, the percent phytotoxicity (crop damage) to wheat at 250 g/ha with wheat was found to be 70%. For the same molecule, the pest or weed control at 250 g/ha in assay [1] (setting [3]) stood at 70%; in assay [1] (setting [4]), 90%; in assay [2] (setting [5]) it was 90%; in assay [2] (setting [6]), 80%; in the assay on Lolium perenne (LOLPE) (setting [7]), 90%; with Lolium perenne (LOLPE) (setting [8]), 100%. For the same molecule, the pest or weed control at 250 g/ha with Avena fatua (AVEFA) (setting [9]) came to 90%; in the assay on Avena fatua (AVEFA) (setting [10]) it was 70%.
